“Also recorded” adds a separate entry of the source. Where no end group is shown, it is not given here.
Tests used:
[1] = modified Wimley-White scale, side chain values; cited from earlier work
[2] = Wimley and White Hydrophobicity Scale; cited from earlier work
[3] = Viscosity of peptide solutions, Brookfield viscometer; type: physicochemical; conditions: peptide 4%, 20 rpm, RT
Protocol: Viscosity: Viscosity of peptides at different pH was measured in a Brookfield RVDV-III 5^+ viscometer (Middleboro, Mass.). All the measurements were taken at 2.5 minute intervals using 8 mL samples at ambient temperature with a spindle SC4-21 operating at 20 rpm. Five data points were averaged for each reported value.

[4] = Solubility and ionisation of peptides at the test pH values; type: physicochemical; conditions: for Solubility: aqueous peptide solutions at pH 2.2, 6.8, 12.0
[5] = MALDI mass spectrometry of dried/hot-pressed peptide for hydrolysis of peptide bonds; type: physicochemical; conditions: 4% peptide pH 12, dried at RT or 130° C. without pressure or 130° C. with pressure
Protocol: The same K3h9K3 samples used in the FTIR studies were analyzed by matrix assisted, laser desorption mass spectrometry. At elevated pH and temperature, the spontaneous hydrolysis of peptide bonds could occur. Dried samples taken from glass slides treated with 4% peptide solutions at pH 12 and dried at either room temperature or 130° C. without pressure as well as dried at 130° C. with pressure were dissolved in acetonitrile containing matrix and transferred to mass spectral target slides.

[6] = Circular dichroism at 25° C. to 75° C. (conformational stability); type: physicochemical; conditions: 250 μM, pH 12, 25° C. to 75° C.
Protocol: Circular Dichroism Spectra: The data set out in FIG. 4 were collected according to the following protocol. The circular dichroic spectra were recorded on a J-720 (Jasco, Japan) spectropolarimeter with a Neslab RTE-111M circulator using a 1.0 mm quartz cuvette from 260 to 180 nm. The spectra are an average of five scans recorded at a rate of 20 nm/min with a 0.2 nm step interval. For circular dichroism measurements, 1 mL samples of synthetic peptide were prepared with a different pH buffer solution. The following buffers were used: 60 mM glycine, 60 mM NaCl, 40 mM HCl, pH 2.2; 50 mM glycine, 50 mM NaCl, 0.2 mM NaOH, pH 6.8; and 45 mM glycine, 45 mM NaCl, 55 mM NaOH, pH 12. The final peptide concentration was 250 μM. All spectra were corrected by subtracting the baseline of the buffer solution recorded under the same condition. Unless otherwise noted, spectra were recorded at room temperature. The CD absorbances were expressed as the mean residue ellipticity in units of degrees cm^2 dmol^−1. Temperatures were controlled with a refrigerated circulator bath (Neslab RTE-111M). Temperatures were controlled between 25° C. to 75° C.

In the case of `C[C@H](N)C(=O)O` [Ala, alanine], the ΔGresidue value [1] is given as -0.5 kcal/mol and the “ΔG for transfer from water to organic phase” value (“ΔG for transfer from water” for short) [2] is given as 0.50 kcal/mol.
For `NCC(=O)O` [Gly], the “ΔG for transfer from water” value [2] is listed as 1.15 kcal/mol.
For `CSCC[C@H](N)C(=O)O` [Met], the “ΔG for transfer from water” value [2] is listed as -0.67 kcal/mol.
In the case of `N[C@@H](Cc1ccccc1)C(=O)O` [Phe], the “ΔG for transfer from water” value [2] is listed as -1.71 kcal/mol.
For `N[C@@H](CO)C(=O)O` [Ser], the “ΔG for transfer from water” value [2] is given as 0.46 kcal/mol.
For `CC(C)[C@H](N)C(=O)O` [Val, valine], the ΔGresidue value [1] is listed as 0.46 kcal/mol and the “ΔG for transfer from water” value [2] is listed as -0.46 kcal/mol.
“EEE-FLIVIGSII-KKK (EEEFLIVIGSIIKKK) [Peptide E3h9K3]” showed a Viscosity ([3]; pH 2.2) of 190 mPa · s, a Viscosity ([3]; pH 6.8) of 245 mPa · s and a Viscosity ([3]; pH 12) of 20 mPa · s.
With “EEEFLIVIGSIIEEE-OH [Peptide E3h9E3, EEE-FLIVIGSII-EEE]” the Viscosity ([3]; pH 12) was 20 mPa · s and the Solubility [4] was “insoluble below and somewhat above its pI; also recorded: insoluble at the two lower pH values”.
In the case of HHHFLIVIGSIIHHH [Peptide H3h9H3], the Solubility [4] is reported as “insoluble at all pH values”.
With “KKK-FLIVIGSII-EEE (KKKFLIVIGSIIEEE) [Peptide K3h9E3]” the Viscosity ([3]; pH 2.2) was 210 mPa · s, the Viscosity ([3]; pH 6.8) was 305 mPa · s and the Viscosity ([3]; pH 12) was 20 mPa · s.
Compound “KKK-FLIVIGSII-KKK (KKKFLIVIGSIIKKK) [Peptide K3h9K3]” has a Viscosity ([3]; pH 2.2) of 20 mPa · s, a Viscosity ([3]; pH 6.8) of 20 mPa · s and a Viscosity ([3]; pH 12) of 290 mPa · s. For the same compound, the “Peptide integrity (hydrolysis of peptide bonds)” value [5] was “intact monomer however no detectable amounts of fragmented peptide” and the “Effect of temperature on CD spectra (conformation)” value [6] was “did not alter the CD spectra”.
For RRRFLIVIGSIIRRR [Peptide R3h9R3], the Ionisation state ([4]; pH 12.0) was “not fully ionized”.

From US7745570B2, “PH dependent adhesive peptides” (Kansas State University Research Foundation, priority 2005, dated 2010)
